Assay results as given in ChEMBL document CHEMBL1201862, “PubChem BioAssay data set” (2004).
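Briefly, cells in 96-well plates were exposed to five compound concentrations for 48 h, and endpoints were estimated by linear interpolation. At the GI50, growth is halved.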 Active and inactive are the calls of the source. No stated cut-off is given here; in the data, active = GI50 up to about 1.1 µM and inactive = higher.

How the values were obtained:
Experiment in all cases: DTP human tumour cell line panel, 48 h
786-0 = test system: 786-0
A549 = test system: A549
ACHN = test system: ACHN
CAKI-1 = test system: CAKI-1
COLO 205 = test system: COLO 205
HOP-62 = test system: HOP-62
IGROV-1 = test system: IGROV-1
K562 = test system: K562
M14 = test system: M14
MCF7 = test system: MCF7
MDA-MB-435 = test system: MDA-MB-435
Malme-3M = test system: Malme-3M
NCI-H23 = test system: NCI-H23
NCI-H460 = test system: NCI-H460
NCI/ADR-RES = test system: NCI/ADR-RES
OVCAR-4 = test system: OVCAR-4
OVCAR-5 = test system: OVCAR-5
RPMI-8226 = test system: RPMI-8226
RXF 393 = test system: RXF 393
SF-268 = test system: SF-268
SK-MEL-28 = test system: SK-MEL-28
SK-MEL-2 = test system: SK-MEL-2
SK-MEL-5 = test system: SK-MEL-5
SK-OV-3 = test system: SK-OV-3
SNB-75 = test system: SNB-75
SR = test system: SR
SW-620 = test system: SW-620
T47D = test system: T47D
U-251 = test system: U-251
UACC-62 = test system: UACC-62
CCRF-CEM = test system: CCRF-CEM
DU-145 = test system: DU-145
EKVX = test system: EKVX
HCC 2998 = test system: HCC 2998
HCT-116 = test system: HCT-116
HCT-15 = test system: HCT-15
HT-29 = test system: HT-29
Hs-578T = test system: Hs-578T
KM12 = test system: KM12
LOX IMVI = test system: LOX IMVI
MDA-N = test system: MDA-N
MOLT-4 = test system: MOLT-4
NCI-H522 = test system: NCI-H522
OVCAR-3 = test system: OVCAR-3
OVCAR-8 = test system: OVCAR-8
PC-3 = test system: PC-3
SF-295 = test system: SF-295
SF-539 = test system: SF-539
SN12C = test system: SN12C
SNB-19 = test system: SNB-19
TK-10 = test system: TK-10
UACC-257 = test system: UACC-257
UO-31 = test system: UO-31
A498 = test system: A498
HL-60 = test system: HL-60
HOP-92 = test system: HOP-92
MDA-MB-231 = test system: MDA-MB-231
NCI-H226 = test system: NCI-H226

## O=P(O)(Cc1ccccc1)OCC1(O)OCC(O)C(O)C1O (stereo unspecified)
786-0
  GI50: > 10 µM (inactive)
A549
  GI50: > 10 µM (inactive)
ACHN
  GI50: > 10 µM (inactive)
CAKI-1
  GI50: > 10 µM (inactive)
COLO 205
  GI50: > 10 µM (inactive)
HOP-62
  GI50: > 10 µM (inactive)
IGROV-1
  GI50: > 10 µM (inactive)
K562
  GI50: > 10 µM (inactive)
M14
  GI50: > 10 µM (inactive)
MCF7
  GI50: > 10 µM (inactive)
MDA-MB-435
  GI50: > 10 µM (inactive)
Malme-3M
  GI50: > 10 µM (inactive)
NCI-H23
  GI50: > 10 µM (inactive)
NCI-H460
  GI50: > 10 µM (inactive)
NCI/ADR-RES
  GI50: > 10 µM (inactive)
OVCAR-4
  GI50: > 10 µM (inactive)
OVCAR-5
  GI50: > 10 µM (inactive)
RPMI-8226
  GI50: > 10 µM (inactive)
RXF 393
  GI50: > 10 µM (inactive)
SF-268
  GI50: > 10 µM (inactive)
SK-MEL-28
  GI50: > 10 µM (inactive)
SK-MEL-2
  GI50: > 10 µM (inactive)
SK-MEL-5
  GI50: > 10 µM (inactive)
SK-OV-3
  GI50: > 10 µM (inactive)
SNB-75
  GI50: > 10 µM (inactive)
SR
  GI50: > 10 µM (inactive)
SW-620
  GI50: > 10 µM (inactive)
T47D
  GI50: > 10 µM (inactive)
U-251
  GI50: > 10 µM (inactive)
UACC-62
  GI50: > 10 µM (inactive)

## CC1C(c2ccc3c(c2)OCO3)c2cc3c(cc2OC1N1CCCCC1)OCO3 (stereo unspecified)
786-0
  GI50: 61.5 µM (inactive)
A549
  GI50: > 100 µM (inactive)
ACHN
  GI50: 59.6 µM (inactive)
CAKI-1
  GI50: 23.4 µM (inactive)
CCRF-CEM
  GI50: 35.2 µM (inactive)
COLO 205
  GI50: 36.5 µM (inactive)
DU-145
  GI50: 52.8 µM (inactive)
EKVX
  GI50: 66.2 µM (inactive)
HCC 2998
  GI50: 20 µM (inactive)
HCT-116
  GI50: 42.6 µM (inactive)
HCT-15
  GI50: 50.4 µM
HOP-62
  GI50: > 100 µM (inactive)
HT-29
  GI50: 57.5 µM (inactive)
Hs-578T
  GI50: 35.4 µM (inactive)
IGROV-1
  GI50: 56.6 µM (inactive)
K562
  GI50: 35.7 µM (inactive)
KM12
  GI50: 41.9 µM (inactive)
LOX IMVI
  GI50: 82.2 µM (inactive)
M14
  GI50: 40.2 µM (inactive)
MCF7
  GI50: 65.9 µM (inactive)
MDA-MB-435
  GI50: 25.2 µM (inactive)
MDA-N
  GI50: 20.8 µM (inactive)
MOLT-4
  GI50: 36.7 µM (inactive)
NCI-H23
  GI50: 60.8 µM (inactive)
NCI-H460
  GI50: 77.8 µM (inactive)
NCI-H522
  GI50: 31.6 µM (inactive)
NCI/ADR-RES
  GI50: 42 µM (inactive)
OVCAR-3
  GI50: 41.6 µM (inactive)
OVCAR-5
  GI50: > 100 µM (inactive)
OVCAR-8
  GI50: > 100 µM (inactive)
PC-3
  GI50: 37.5 µM (inactive)
RPMI-8226
  GI50: 47.9 µM (inactive)
SF-268
  GI50: > 100 µM (inactive)
SF-295
  GI50: 30.6 µM (inactive)
SF-539
  GI50: 50.8 µM (inactive)
SK-MEL-28
  GI50: 54.8 µM (inactive)
SK-MEL-2
  GI50: 33.6 µM (inactive)
SK-MEL-5
  GI50: 54.6 µM (inactive)
SN12C
  GI50: > 100 µM (inactive)
SNB-19
  GI50: 48.9 µM (inactive)
SR
  GI50: 37.8 µM (inactive)
SW-620
  GI50: 55 µM (inactive)
T47D
  GI50: 30.7 µM (inactive)
TK-10
  GI50: > 100 µM (inactive)
UACC-257
  GI50: > 100 µM (inactive)
UACC-62
  GI50: 88.9 µM (inactive)
UO-31
  GI50: 77.1 µM (inactive)

## C[N+](C)(C)CCOP(=O)(O)OP(=O)([O-])OCC1CCC(n2ccc(N)nc2=O)O1 (stereo unspecified)
A498
  GI50: > 80.9 µM (inactive)
A549
  GI50: > 100 µM (inactive)
ACHN
  GI50: > 100 µM (inactive)
CAKI-1
  GI50: > 100 µM (inactive)
DU-145
  GI50: > 100 µM (inactive)
HCC 2998
  GI50: > 100 µM (inactive)
HCT-15
  GI50: > 100 µM
HL-60
  GI50: > 100 µM (inactive)
HOP-62
  GI50: > 100 µM (inactive)
HOP-92
  GI50: > 100 µM (inactive)
HT-29
  GI50: > 100 µM (inactive)
K562
  GI50: > 100 µM (inactive)
KM12
  GI50: > 100 µM (inactive)
LOX IMVI
  GI50: > 100 µM (inactive)
M14
  GI50: > 100 µM (inactive)
MDA-MB-231
  GI50: 77.6 µM (inactive)
MDA-MB-435
  GI50: > 100 µM (inactive)
Malme-3M
  GI50: > 100 µM (inactive)
NCI-H226
  GI50: > 100 µM (inactive)
NCI-H23
  GI50: > 100 µM (inactive)
NCI-H460
  GI50: > 100 µM (inactive)
NCI-H522
  GI50: > 100 µM (inactive)
OVCAR-3
  GI50: > 100 µM (inactive)
OVCAR-4
  GI50: > 100 µM (inactive)
OVCAR-5
  GI50: > 100 µM (inactive)
RPMI-8226
  GI50: > 100 µM (inactive)
SF-268
  GI50: > 100 µM (inactive)
SF-295
  GI50: > 100 µM (inactive)
SF-539
  GI50: > 100 µM (inactive)
SK-MEL-28
  GI50: > 100 µM (inactive)
SK-MEL-5
  GI50: > 100 µM (inactive)
SN12C
  GI50: > 100 µM (inactive)
SNB-75
  GI50: > 100 µM (inactive)
SR
  GI50: > 100 µM (inactive)
SW-620
  GI50: > 100 µM (inactive)
TK-10
  GI50: > 100 µM (inactive)
UACC-257
  GI50: > 100 µM (inactive)
UACC-62
  GI50: > 100 µM (inactive)
UO-31
  GI50: > 100 µM (inactive)
